According to US6551774B1, “Diagnostic methods for conditions associated with elevated cellular levels of telomerase activity” (Board of Regents, The University of Texas System, priority 1992, dated 2003):

How the values were obtained:
Tetrahymena cells [1] = test: Growth, morphology and senescence of Tetrahymena mass-transfer cultures with nucleoside analogs; format: cell-based, Tetrahymena thermophila
Experimental: (§1) For analysis of macronuclear DNA from cultures containing the nucleoside analog AZT (Sigma), or controls lacking analog, at various timepoints during vegetative divisions, cells from stationary stock cultures were inoculated into 25 ml thymine-deficient Iso-sensitest broth (‘Isobroth’, Oxoid USA) in 250 ml flasks. Cultures were incubated at 30° C. with shaking (100 rpm) for 48 hours. Cells were counted and plated at 1000 cells/1.5 ml in 24-well plates (Falcon) and grown at 30° C., without shaking, for 48 hours. 5 μl of these log phase cells were used to inoculate 1 ml cultures (Isobroth) containing varied concentrations of nucleoside analog. Thereafter, every 2-4 days cells were transferred, either 5 μl per well, or 1-3 μl using a multi-pronged replicator into fresh 1 ml broth containing AZT. Remaining cells were pelleted and stored at −80° C. until processed for DNA analysis.
(§2) For analysis of macronuclear DNA from vegetative cultures containing the nucleoside analogs Ara-G (Calbiochem), ddG (Calbiochem), or ddI (Calbiochem), or controls lacking analog, stock cultures were grown overnight in 2% PPYS as described. Cells were counted and plated at 100 cells/2 ml in 2% PPYS containing varied amounts of analog, 1% DMSO (Fisher) (as a control for ddG and Ara-G), or 2% PPYS alone. Cells were replica plated into fresh medium every 2-6 days, and remaining cells were pelleted and stored at −80° C. until processed for DNA analysis.
To test whether such a phenotype could be produced by inhibitors of telomerase in Tetrahymena, duplicate log-phase cultures were grown for prolonged periods in the presence of varying concentrations of analogs. The growth and cell morphology of these cultures were monitored, and DNA was isolated at different times for telomere length analysis. […] From growth rate measurements it was calculated that the cells went through 150 to 250 cell generations in the course of this 50 day period.

Tetrahymena cells [2] = test: Telomere length in vegetatively grown Tetrahymena by Southern blot; format: cell-based, Tetrahymena thermophila
Experimental: as §1, §2
For analysis of macronuclear DNA from vegetative cultures containing d4T (Sigma) or control lacking the analog, stock cultures (SB210 VI) were grown overnight in Isobroth as described. Cells were then counted and duplicate cultures inoculated at 500 cells/5 ml Isobroth in 50 ml conical tubes, and grown at 30° C., shaking 80 rpm. 500-2000 cells were transfered to fresh broth every 2-4 days, and the remainder pelleted and stored at −80° C. until processed for DNA analysis.
Restriction digests, agarose gel electrophoresis, transfer of DNA to Nytran filters (Schleicher and Schuell), and hybridization with ^32P-nick-trapplated or random-primed probes were carried out using standard procedures (Maniatis et.al. 1989). Telomere length was analyzed as described previously for Tetrahymena [Larson 50 Cell, 477, 1987].
Telomere lengths in cells grown in the presence of the different analogs were monitored by Southern blot analysis of DNA samples extracted at a series of time points during the subculturings. The telomeres of cells grown vegetatively in 1 and 5 mM AZT in 2% PPYS medium were reproducibly shortened by up to an average of 170 base pairs compared with the control cultures grown in 2% PPYS in the absence of the drug (FIG. 21A and B). This shortening of telomeres occured in a concentration-dependent manner (FIG. 21B), with at least 50% of the maximal shortening effect occurring by 10 μM AZT, the lowest concentration tested.

Cc1cn([C@H]2C[C@H](N=[N+]=[N-])[C@@H](CO)O2)c(=O)[nH]c1=O [AZT]
effect on cell growth and survival (Tetrahymena cells [1]; 5 or 10 mM in Isobroth medium): strongly inhibited cell growth and killed cells within a day
senescence of cultures (Tetrahymena cells [1]; up to 1 mM in Isobroth, 50-day continuous growth, ˜10^3 cells per transfer): did not result in senescence
fraction of the maximal telomere shortening effect (Tetrahymena cells [2]; 10 μM, the lowest concentration tested): at least 50%
shortening of telomeres compared with control cultures (Tetrahymena cells [2]; 1 and 5 mM in 2% PPYS medium): ≤ 170 base pairs
